As usually defined, the IC50 is the concentration that inhibits the measured activity by half.

Each structure is given as a SMILES string. Where only a bound is given, the exact number is not on record here.

This is an account of results in PMC10445084, “Green synthesis, anti-proliferative evaluation, docking, and MD simulations studies of novel 2-piperazinyl quinoxaline derivatives using hercynite sulfaguanidine-SA as a highly efficient and reusable nanocatalyst” (RSC Advances, 2023).

One assay deals with HCT116. Description: MTT cytotoxicity assay, HCT116 colon cancer cells. The class given is cell-based, human. The note with it: 48 h incubation. On the procedure:
(§1) The tested cells were cultured in medium and dialyzed fetal bovine serum (FBS) and then as suspended germs in Minimum Essential Medium (MEM) were seeded into 96-well plates (at the density of 10 × 10^4 viable cells per well). After 24 h incubation in 5% CO2 at 37 °C and cell attachment. Then the evaluated compounds (at 0.1–250 μg ml^−1 concentrations) were added to the cultured cells and incubated for another 24/48 h.[18,19] After washing of the cell containing plates with […], 20 μl of fresh 4,5-(dimethylthiazol-2-yl)-2,5-diphenyl tetrazolium bromide (MTT) solution (5 mg ml^−1) was added to each well, and incubated with cells for additional 4 h in the same conditions. Then, the medium was discarded and approximately 70 μl of DMSO was used and the resulted solution was vigorously mixed to dissolve and remove the residual tetrazolium and purple formazan crystals in each well. Next, the absorbance of each well was measured at 492 nm and 630 nm (for absorbance of MTT formazan and the reference wavelength respectively) with an ELISA plate reader. Stock solutions of all the tested compounds were prepared in DMSO, while the final dilutions were made with distilled water in order to maintain a maximum concentration of 0.5% DMSO per well. All the evaluated compounds were also tested for cytotoxicity on HFF normal cells at the above-mentioned concentrations and in the same conditions and incubation periods of time. Curves were fit using Graph Pad Prism as described in the Methods section.[19]
(§2) All the evaluated N-Mannich bases (2a–2d, 3a–3h and 4a–4d) were investigated for anti-proliferative activity against two cancer cell lines, HCT116 (human colon cancer) and KOV3 (human ovarian carcinoma). HFF (human foreskin fibroblasts) normal cells were also tested to determine the selectivity of their cytotoxic effects in killing cancer over normal cells. […] After 24 and 48 h of incubation, cell viability was measured by the [3-(4,5-dimethylthiazol-2-yl)-2,5-diphenyltetrazolium bromide] (MTT) colorimetric assay.[34] At the end of each incubation period, the IC50 value and cell viability for each N-Mannich base were calculated in different concentrations (0.15–2.4 μM) and determined graphically as established in Fig. 3. […] A DMSO equivalent control (n = 2 ± SEM) was also included for each cell line tested. Standard graph was plotted by taking concentration of the drug in X axis and relative cell viability in Y axis (cell viability (%) = mean OD/control OD × 100%) in Graph Pad Prism 8.
(§3) 2.5. Biological evaluations: In vitro cytotoxicity
(§4) This rapid assay is based on the reduction of tetrazolium salt to dark blue formazan product by mitochondrial enzymes of living, not dead cells after 24 and 48h exposure of cells to tested compounds at different concentrations. DMSO (with the less concentration than 1%) was the solvent in this biological test. serial concentrations were made by diluting stock solution of each compound (50μM) with culture media (RPMI 1640). […]
On the technique in general: Tetrazolium dyes change colour on reduction, which living cells bring about.

In another assay the test system is SKOV3. Description: MTT cytotoxicity assay, SKOV3 ovarian cancer cells. The note with it: 48 h incubation. The class given is cell-based, human. The procedure: as §1, §2, §3, §4
The test system of assay [1] is HFF (human foreskin fibroblasts) normal cells. Description: MTT cytotoxicity assay, HFF normal cells. The following applies: Fibroblast, 48 h incubation. In kind it is cell-based. The procedure:
as §1, §2, §3, §4

The next assay deals with HCT116 and SKOV3. In words: MTT assay, statements pooled over both cancer cell lines. The note with it: Homo sapiens, read-out: IC50 on the tested cancer cell lines. The class given is cell-based. The procedure:
as §1, with “Then, the medium was discarded and approximately 70 μl of DMSO was used and the resulted solution was vigorously mixed to dissolve and remove the residual tetrazolium and purple formazan crystals in each well.” left out, “Stock solutions of all the tested compounds were prepared in DMSO, while the final dilutions were made with distilled water in order to maintain a maximum concentration of 0.5% DMSO per well.” left out, “Curves were fit using Graph Pad Prism as described in the Methods section.[19]” left out
All the evaluated N-Mannich bases (2a–2d, 3a–3h and 4a–4d) were investigated for anti-proliferative activity against two cancer cell lines, HCT116 (human colon cancer) and KOV3 (human ovarian carcinoma). […] After 24 and 48 h of incubation, cell viability was measured by the [3-(4,5-dimethylthiazol-2-yl)-2,5-diphenyltetrazolium bromide] […]

As for `NC(=O)NN=C1C(=O)N(CN2CCN(c3cnc4ccccc4n3)CC2)c2ccccc21` [3a, 2-(2-oxo-1-((4-(quinoxalin-2-yl)piperazin-1-yl)methyl)indolin-3-ylidene) hydrazine-1-carboxamide], the IC50 turned out to be 1.99 µM in the assay on HCT116 (Homo sapiens, HCT-116, 48 h); 2.21 µM in the assay on SKOV3 (Homo sapiens, SK-OV-3, 48 h); 13.5 µM in assay [1].
`O=C1C(=O)N(CN2CCN(c3cnc4ccccc4n3)CC2)c2ccc(Cl)cc21` [2c, 5-chloro-1-((4-(quinoxalin-2-yl)piperazin-1-yl)methyl) indoline-2,3-dione]: the IC50 was 6.06 µM with HCT116 (Homo sapiens, HCT-116, 48 h); 6.49 µM in the assay on SKOV3 (Homo sapiens, SK-OV-3, 48 h); 82 µM in assay [1].
As to `Cc1ccc2c(c1)C(=O)C(=O)N2CN1CCN(c2cnc3ccccc3n2)CC1` [2d, 5-methyl-1-((4-(quinoxalin-2-yl)piperazin-1-yl)methyl) indoline-2,3-dione], the IC50 is 5 µM in the assay with HCT116 (Homo sapiens, HCT-116, 48 h); 5.3 µM in the assay on SKOV3 (Homo sapiens, SK-OV-3, 48 h); 58.1 µM in assay [1].
In the same order, the values of `NC(=S)N/N=C1/C(=O)N(CN2CCN(c3cnc4ccccc4n3)CC2)c2ccccc21` [3b, 2-(2-oxo-1-((4-(quinoxalin-2-yl)piperazin-1-yl)methyl)indolin-3-ylidene) hydrazine-1-carbothioamide] are 3.03 µM, 3.38 µM and 24.6 µM.
Turning to `Cc1ccc2c(c1)/C(=N\C(=N)NC(=N)N(C)C)C(=O)N2CN1CCN(c2cnc3ccccc3n2)CC1` [4d], the 50% inhibitory concentration (IC50) in the assay with HCT116 (Homo sapiens, HCT-116, 48 h) was 1.54 µM; in the assay with SKOV3 (Homo sapiens, SK-OV-3, 48 h), 1.72 µM; in assay [1] it was 10 µM.
With `CN(C)C(=N)NC(=N)/N=C1/C(=O)N(CN2CCN(c3cnc4ccccc4n3)CC2)c2ccc(Br)cc21` [4b, N′-[4-(quinoxaline-2-yl)-piperazine-1-yl]methyl-5-bromo-1-H-indole,2,3-dion-3-metformin], the IC50 in the assay with HCT116 was 0.458 µM; in the assay with HCT116 (Homo sapiens, HCT-116, 48 h), 0.45 µM; with SKOV3, 0.488 µM; in the assay on SKOV3 (Homo sapiens, SK-OV-3, 48 h), 0.48 µM; in assay [1], 6.95 µM; with HCT116 and SKOV3 it was less than 1 µM.
As to `NC(=S)N/N=C1/C(=O)N(CN2CCN(c3cnc4ccccc4n3)CC2)c2ccc(Br)cc21` [3d, 2-(5-bromo-2-oxo-1-((4-(quinoxalin-2-yl)piperazin-1-yl)methyl)indolin-3-ylidene) hydrazine-1-carbothioamide], the IC50 was 4.85 µM with HCT116 (Homo sapiens, HCT-116, 48 h); 5.03 µM in the assay with SKOV3 (Homo sapiens, SK-OV-3, 48 h); 49.6 µM in assay [1].
As to `NC(=S)N/N=C1/C(=O)N(CN2CCN(c3cnc4ccccc4n3)CC2)c2ccc(Cl)cc21` [3f, 2-(5-chloro-2-oxo-1-((4-(quinoxalin-2-yl)piperazin-1-yl)methyl)indolin-3-ylidene) hydrazine-1-carbothioamide], the IC50 in the assay with HCT116 (Homo sapiens, HCT-116, 48 h) came to 4.92 µM; in the assay on SKOV3 (Homo sapiens, SK-OV-3, 48 h), 5.15 µM; in assay [1] it was 57.1 µM.
In the same order, the values of `Cc1ccc2c(c1)C(=NNC(N)=O)C(=O)N2CN1CCN(c2cnc3ccccc3n2)CC1` [3g, 2-(5-methyl-2-oxo-1-((4-(quinoxalin-2-yl)piperazin-1-yl)methyl)indolin-3-ylidene)hydrazine-1-carboxamide] are 2.92 µM, 3.25 µM and 22.8 µM.
As to `CN(C)C(=N)NC(=N)/N=C1/C(=O)N(CN2CCN(c3cnc4ccccc4n3)CC2)c2ccc(Cl)cc21` [4c, N′-[4-(quinoxaline-2-yl)-piperazine-1-yl]methyl-5-chloro-1-H-indole,2,3-dion-3-metformin], the IC50 in the assay on HCT116 was 0.392 µM; with HCT116 (Homo sapiens, HCT-116, 48 h) it was 0.39 µM; in the assay with SKOV3, 0.44 µM; with SKOV3 (Homo sapiens, SK-OV-3, 48 h) it was 0.44 µM; in assay [1] it was 6.81 µM; in the assay with HCT116 and SKOV3 it was less than 1 µM.
Consider `O=C1C(=O)N(CN2CCN(c3cnc4ccccc4n3)CC2)c2ccccc21` [2a, 1-((4-(quinoxalin-2-yl)piperazin-1-yl)methyl) indoline-2,3-dione], for which the IC50 came out at 7.03 µM with HCT116 (Homo sapiens, HCT-116, 48 h); 7.67 µM in the assay on SKOV3 (Homo sapiens, SK-OV-3, 48 h); 83.6 µM in assay [1].
With `NC(=O)N/N=C1/C(=O)N(CN2CCN(c3cnc4ccccc4n3)CC2)c2ccc(Br)cc21` [3c, 2-(5-bromo-2-oxo-1-((4-(quinoxalin-2-yl)piperazin-1-yl)methyl)indolin-3-ylidene) hydrazine-1-carboxamide], the IC50 turned out to be 3.35 µM with HCT116 (Homo sapiens, HCT-116, 48 h); 3.52 µM in the assay on SKOV3 (Homo sapiens, SK-OV-3, 48 h); 35.9 µM in assay [1].
The matching figures for `O=C1C(=O)N(CN2CCN(c3cnc4ccccc4n3)CC2)c2ccc(Br)cc21` [2b, 5-bromo-1-((4-(quinoxalin-2-yl)piperazin-1-yl)methyl) indoline-2,3-dione]: 5.12 µM, 5.43 µM and 58.1 µM.
Take `CN(C)C(=N)NC(=N)N=C1C(=O)N(CN2CCN(c3cnc4ccccc4n3)CC2)c2ccccc21` [4a, N’-[4-(quinoxaline-2-yl)-piperazine-1-yl]methyl-1-H-indole,2,3-dion-3-metformin]: the IC50 was determined as 1.23 µM in the assay with HCT116 (Homo sapiens, HCT-116, 48 h); 1.51 µM in the assay with SKOV3 (Homo sapiens, SK-OV-3, 48 h); 9.11 µM in assay [1].
Take `Cc1ccc2c(c1)/C(=N\NC(N)=S)C(=O)N2CN1CCN(c2cnc3ccccc3n2)CC1` [3h, 2-(5-methyl-2-oxo-1-((4-(quinoxalin-2-yl)piperazin-1-yl)methyl)indolin-3-ylidene) hydrazine-1-carbothioamide]: the IC50 in the assay on HCT116 (Homo sapiens, HCT-116, 48 h) stood at 3.23 µM; in the assay with SKOV3 (Homo sapiens, SK-OV-3, 48 h), 3.46 µM; in assay [1] it was 26.6 µM.
For `NC(=O)N/N=C1/C(=O)N(CN2CCN(c3cnc4ccccc4n3)CC2)c2ccc(Cl)cc21` [3e, 2-(5-chloro-2-oxo-1-((4-(quinoxalin-2-yl)piperazin-1-yl)methyl)indolin-3-ylidene) hydrazine-1-carboxamide], the IC50 in the assay on HCT116 (Homo sapiens, HCT-116, 48 h) came out at 4.3 µM; in the assay on SKOV3 (Homo sapiens, SK-OV-3, 48 h), 4.96 µM; in assay [1] it was 37.6 µM.
